Assay results taken from patent US6482805B2 (Parker Hughes Institute, priority 1998, dated 2002).
pIC50: −log10 of the molar value.

Columns and labels:
[1] = system: human sperm binding and penetration of zona-free hamster eggs; assay: Zona-free hamster egg penetration assay (Example 6); format: cell-based; details: 25 μM or 100 μM, 3 hours preincubation; P<0.001
Method: The heterologous zona-free hamster egg penetration assay appears to correlate with the in vivo fertilizing capacity of human sperm as well as the ability of human sperm to fertilize intact human eggs in vitro.
15, 471 (1976)]. Motile fractions of sperm (n=4) obtained by 90-45% Percoll gradient centrifugation and wash were resuspended in BWW-3.5% BSA medium (pH 7.4) and divided into aliquots of 20×10^6 sperm/ml and allowed to capacitate for 24 hours. […] After exposure to drugs, the control and WHI-treated sperm suspensions were washed in BWW-3.5% BSA medium. Sperm motility following capacitation and washing in BWW-3.5% BSA medium was assessed by CASA.
Frozen hamster eggs (Charles River Laboratories, Wilmington, Mass.) were thawed and transferred to 35 mm glass bottom microwells (Mat Tek Corporation, Ashland, Mass.) in BWW medium. To remove zona, the washed eggs were treated with 0.05% trypsin (Irvine Scientific) in BWW medium for 20 min and then transferred to BWW-3.5% BSA medium and washed three times. Fifteen to 45 zona-free eggs per test were transferred in 100 μl of BWW-3.5% BSA medium under mineral oil. […] The number of sperm bound per egg, the number of swollen sperm heads per egg, and the percentage of penetrated eggs were determined for control and test sperm. […]

female Swiss (CD-1) mice = assay: Fertility of female mice after artificial insemination with intravaginal application (Example 7); format: in vivo, mouse
Source text: Because fertilization in vivo is dependent on successful sperm transport through the female genital tract, we next determined whether exposure of sperm to the WHI-07 in vivo affected the subsequent fertility outcome. Hormonally primed adult female Swiss (CD-1) mice were artificially inseminated with motile epididymal sperm via the cervix with and without prior intravaginal application of WHI-07 in a cream base. Females were examined 8 days later for the presence or absence of embryos in uteri.
More particularly, adult (5-6 months old) female CD-1 mice were superovulated by an intraperitoneal injection (i. p.) of 5 IU of pregnant mare's serum gonadotropin followed by an i.p. injection of 5 IU of human chorionic gonadotropin 46-48 hours later. Mice were randomly assigned to one of the two treatment groups (27 or 24/group); vehicle controls [cream base (Taro Pharmaceuticals, Hawthorne, N.J.) with 1% DMSO], or test group (cream base with 1% WHI-07 in 1% DMSO) and given intravaginally (50 μl) prior to artificial insemination. Caudae epididymal sperm were obtained from proven breeder adult CD-1 male (5-6 months old) [B. Hogan, R. Beddington, F. Costantini, E. Lacy, Eds., Manipulating the Mouse Embryo (Cold Spring Harbor Laboratory Press, Plainview, N.Y., 1994] and suspended in a modified Krebs Ringer-bicarbonate medium (M2; Gibco-BRL) supplemented with pyruvate, lactate, and glucose. Sperm were capacitated in M2 medium-5% BSA for 1 hour prior to use. For each experiment cauda epididymal sperm pooled from 25 male mice and adjusted to 1-2×10^6 motile sperm/50 μl were used for insemination. A 50 μl volume/mouse was ejected through a 1 ml syringe with a blunted 18 gauge needle. Preparations were analyzed for sperm concentration, motility, and sperm motion parameters by CASA using software designed for oval sperm head morphology (Hamilton Thorne). On day 8, individual females representing the control and test group were killed and their uteri were examined for the presence or absence of embryos. A total of three independent fertility experiments were performed.

HIV-1 strain HTLVIIIB = assay: In vitro anti-HIV-1 activity, HTLVIIIB p24 assay in PBMC (Example 9); format: cell-based; details: Human immunodeficiency virus 1; HIV-1 replication in PBMC, p24 antigen production
Method: The HIV-1 strain, HTLVIIIB, which was propagated in CCRF-CEM cells, was used for in vitro assays of the anti-HIV-1 activity of selected novel WHI-07 analogues. Cell-free supernatants of HTLVIIIB-infected CCRF-CEM cells were harvested, dispensed into 1 ml aliquots, and frozen at −70° C. Titration of stock virus was performed by examining its cytopathic effects in MT-2 cells. [see, Uckun FM, et al., Antimicrob Agents Chemther 1998; 42:383-388]. Normal human peripheral blood mononuclear cells (PBMC) from HIV-negative donors were cultured for 72 h in RPMI 1640 supplemented with 20%(v/v) heat-inactivated fetal bovine serum (FBS), 3% interleukin-2, 2 mM L-glutamine, 25 mM HEPES, 2 g/L NaHCO3, 50 μg/ml gentamicin, and 4 μg/ml phytohemagglutinin prior to exposure to HIV-1 at a multiplicity of infection of 0.1 during a 1 h adsorption period at 37° C. in a humidified 5% CO2 atmosphere. […] Percent viral inhibition was calculated by comparing the p24 values from the drug-treated infected cells with p24 values from untreated infected cells (i.e., virus controls). […] A microculture tetrazolium assay, using 2,3-bis(2-methoxy-4-nitro-5-sulfophenyl)-5-[(phenylamino)-carbonyl]-2H-tetrazolium hydroxide, was performed to quantitate cellular proliferation.

[2] = experiment 1, 27 mice, 1% WHI-07 in cream base intravaginally, day 8
[3] = experiment 2, 27 mice, 1% WHI-07 in cream base intravaginally, day 8
[4] = experiment 3, 24 mice, 1% WHI-07 in cream base intravaginally, day 8
[5] = total of three experiments, 78 mice, p < 0.001 vs control

5-bromo-6-methoxy-5,6-dihydro-3 ′-azidothymidine-5 ′-(p-methoxyphenyl) methoxyalaninyl phosphate [WHI-05]
sperm binding to zona-free eggs [1]: significant inhibition

COC(=O)C(C)NP(=O)(OCC1OC(N2C(=O)NC(=O)C(C)(Br)C2OC)CC1N=[N+]=[N-])Oc1ccc(Br)cc1 (centres unmarked) [WHI-07, 5-Bromo-6-methoxy-5,6-dihydro-3′-azidothymidine-5′-(p-Bromophenyl Methoxyalaninyl Phosphate)]
No. of WHI-07-treated mice fertile (female Swiss (CD-1) mice; [2]): 2 | WHI-07-treated mice fertile (%) (female Swiss (CD-1) mice; [2]): 7.4% | No. of WHI-07-treated mice fertile (female Swiss (CD-1) mice; [3]): 1 | WHI-07-treated mice fertile (%) (female Swiss (CD-1) mice; [3]): 3.7% | No. of WHI-07-treated mice fertile (female Swiss (CD-1) mice; [4]): 3 | WHI-07-treated mice fertile (%) (female Swiss (CD-1) mice; [4]): 12.5% | No. of WHI-07-treated mice fertile (female Swiss (CD-1) mice; [5]): 6 | WHI-07-treated mice fertile (%) (female Swiss (CD-1) mice; [5]): 7.6% | pIC50 (HIV-1 strain HTLVIIIB): 8.30 | sperm binding to zona-free eggs [1]: significant inhibition
